Assay results reported in US9975853B2, “Tetrahydroisoquinolinone derivatives and their use in the inhibition of the HSP70 protein” (Julius-Maximilians-Universitaet Wuerzburg, priority 2014, dated 2018).

Test system: INA-6
Assay: Cell viability assay (annexin V-FITC/propidium iodide, flow cytometry) in INA-6 multiple myeloma cells
Assay type: cell-based, human
Conditions: Homo sapiens, INA-6, 72 h, INA-6 multiple myeloma cells, 72 hours of treatment, viable cell fraction; mean of at least three determinations; read-out: INA-6 EC50(±sdv)
Method: The effect of pharmacological Hsp70 inhibition on cell viability was analyzed after 72 hours of treatment in both non-malignant (mononuclear cells from the peripheral blood) and malignant lymphocytes (multiple myeloma cells). The mononuclear cells were separated from the peripheral blood of healthy donors by Ficoll-Hypaque density gradient centrifugation. The human cell line INA-6 represents a well-established model for multiple myeloma. The percentage of viable and apoptotic cell fractions was assessed using an annexin V-FITC/propidium iodide (PI) staining kit (Bender MedSystems, Vienna, Austria) according to manufacturer's instructions. In brief, cells were washed in PBS, incubated for 10 min in 100 ml binding buffer (10 mM HEPES/NaOH, pH 7.4, 140 mM NaCl, 2.5 mM CaCl2) containing 2.5 ml annexin V-FITC mix and 1 mg/ml propidium iodide (PI), subsequently diluted with 100 ml binding buffer and analyzed by flow cytometry (FACSCalibur/CELLQuest; Becton Dickinson, Heidelberg, Germany). Whereas viable cells are negative for both, annexin V-FITC and PI, early apoptotic cells show a positive annexin V-FITC staining, and cells in a late apoptotic stage which lose their membrane integrity additionally incorporate DNA-binding PI. To establish kill curves, concentrations of the tested compounds were titrated, and the measured viable cell fractions were further analyzed using the Prism Calculation Software (GraphPad Software Inc., La Jolla, USA).
In FIG. 2A Western blot analyses of caspases 9 and 3, and the caspase substrate PARP (upper panel), and viability analyses (lower panel) of INA-6 MM cells upon treatment with trans-7b for 24 hours are shown. INA-6 cells were either incubated with DMSO (as a solvent control) or with 0.6 μM of trans-7b, and additionally incubated either with DMSO or the pan-caspase inhibitor Z-VAD-FMK prior to analyses by Western or viability assessment (without Z-VAD-FMK co-treatment) by Annexin V/propidum iodide double staining. For Western analyses INA-6 cell pellets were dissolved in lysis buffer (20 mM HEPES (pH 7.9), 350 mM NaCl, 1 mM MgCl2, 0.5 mM EDTA, 0.1 mM EGTA, 1% NP40, 0.5 mM dithiothreiol (DTT), 1 mM Na3VO4, 0.1 mM PMSF and 1 μg/ml aprotinin). Lysates were cleared by centrifugation, measured by quantitative protein assay (Bio-Rad, München, Germany) and subjected to SDS gel electrophoresis. Proteins were transferred onto nitrocellulose membranes (Schleicher & Schuell, Dassel, Germany), incubated with antibodies specific for caspase 9, caspase 3 or PARP (Cell Signaling Technology, Frankfurt a.Main, Germany) according to standard procedures and visualized with secondary anti-rabbit horseradish peroxidase (HRP)-conjugated antibodies using an enhanced chemoluminescence detection system (ECL, Amersham, Freiburg, Germany). […] Annexin V/propidium iodide (PI) staining was performed using a fluorescein isothiocyanate (FITC) conjugated recombinant human annexin/propidium iodide kit (BenderMedSystems, Vienna, Austria) according to the manufacturer's instructions. INA-6 cells were washed in PBS, incubated for 15 minutes in 100 ml binding buffer (10 mM HEPES/NaOH, pH 7.4, 140 mM NaCl, 2.5 mM CaCl2) containing 2.5 mL annexin V-FITC mix and 1 mg/ml PI and analyzed by flow cytometry (FACSCalibur/CELLQuest; Becton Dickinson, Heidelberg, Germany). Whereas early apoptosis is characterized by positive annexin V-FITC staining reaction, cells in a late apoptotic stage lose their membrane integrity and additionally incorporate PI. Thus, the fraction of viable cells remains negative for both annexin V-FITC and PI. […] Based on the above described experiments also viability analyses of INA-6 in comparison with non-malignant PBMCs were performed choosing a longer incubation time (72 hours) as shown in FIG. 2B or C. Raw data of three independent experiments have been calculated to establish means, standard deviation and dose-effect curves of trans-7b.

| Compound | EC50 |
| --- | --- |
| Cc1cccc(NC(=O)C2c3ccccc3C(=O)N(c3ccccc3)C2c2ccccc2)n1 (stereo not drawn) [trans-7a, trans-N-(6-Methylpyridin-2-yl)-1-oxo-2,3-diphenyl-1,2,3,4-tetrahydroisoquinoline-4-carboxamide] | 2300 nM |
| COc1ccc(C2C(C(=O)N(C)C)c3ccccc3C(=O)N2c2ccc(OC)cc2)cc1 (stereo not drawn) [trans-7h, trans-2,3-Bis(4-methoxyphenyl)-N,N-dimethyl-1-oxo-1,2,3,4-tetrahydroisoquinoline-4-carboxamide] | > 100000 nM |
| COc1ccc(C2C(C(=O)Nc3cccc4c3CCCC4)c3ccccc3C(=O)N2c2ccc(OC)cc2)cc1 (stereo not drawn) [trans-7i, trans-2,3-Bis(4-methoxyphenyl)-1-oxo-N-(5,6,7,8-tetrahydronaphthalen-1-yl)-1,2,3,4-tetrahydroisoquinoline-4-carboxamide] | > 100000 nM |
| Cc1cccc(NC(=O)C2c3ccccc3C(=O)N(c3ccc(Cl)cc3)C2c2ccc(Cl)cc2)n1 (stereo not drawn) [trans-7l, trans-2,3-Bis(4-chlorophenyl)-N-(6-methylpyridin-2-yl)-1-oxo-1,2,3,4-tetrahydroisoquinoline-4-carboxamide] | 2900 nM |
| Cc1cc(C)cc(C2C(C(=O)Nc3cccc(C)n3)c3ccccc3C(=O)N2c2cc(C)cc(C)c2)c1 (stereo not drawn) [trans-7m, trans-2,3-Bis(3,5-dimethylphenyl)-N-(6-methylpyridin-2-yl)-1-oxo-1,2,3,4-tetrahydroisoquinoline-4-carboxamide] | 43000 nM |
| Cc1cccc(NC(=O)C2c3ccccc3C(=O)N(c3ccc(O)cc3)C2c2ccc(O)cc2)n1 (stereo not drawn) [trans-7o, trans-2,3-Bis(4-hydroxyphenyl)-N-(6-methylpyridin-2-yl)-1-oxo-1,2,3,4-tetrahydroisoquinoline-4-carboxamide] | 30000 nM |
| COc1ccc(C2C(C(=O)Nc3cc(C)cc(C)n3)c3ccccc3C(=O)N2c2ccccc2)cc1 (stereo not drawn) [trans-7r, trans-N-(4,6-Dimethylpyridin-2-yl)-3-(4-methoxyphenyl)-1-oxo-2-phenyl-1,2,3,4-tetrahydroisoquinoline-4-carboxamide] | 340 nM |

The remaining lines, values ahead:

| EC50 | Compound |
| --- | --- |
| > 100000 nM | COc1ccc([C@H]2[C@H](C(=O)O)c3ccccc3C(=O)N2c2ccc(OC)cc2)cc1 (relative stereo) [cis-6d, Sodium trans-2,3-bis(4-methoxyphenyl)-1-oxo-1,2,3,4-tetrahydroisoquinoline-4-carboxylate] |
| 7900 nM | COc1ccc([C@H]2[C@@H](C(=O)O)c3ccccc3C(=O)N2c2ccc(OC)cc2)cc1 (relative stereo) [trans-6d, Sodium cis-2,3-bis(4-methoxyphenyl)-1-oxo-1,2,3,4-tetrahydroisoquinoline-4-carboxylate] |
| > 100000 nM | COc1ccc(N2C(=O)c3ccccc3C(C(=O)O)C2c2ccccc2)cc1 (stereo not drawn) [cis-5c, cis-2-(4-Methoxyphenyl)-1-oxo-3-phenyl-1,2,3,4-tetrahydroisoquinoline-4-carboxylic acid] |
| 680 nM | COc1ccc(C2C(C(=O)Nc3cccc(C)n3)c3ccccc3C(=O)N2c2ccc(OC)cc2)cc1 (stereo not drawn) [trans-7d, trans-2,3-Bis(4-methoxyphenyl)-N-(6-methylpyridin-2-yl)-1-oxo-1,2,3,4-tetrahydroisoquinoline-4-carboxamide] |
| 530 nM | COc1ccc(C2C(C(=O)Nc3ccccn3)c3ccccc3C(=O)N2c2ccc(OC)cc2)cc1 (stereo not drawn) [trans-7f, trans-2,3-Bis(4-methoxyphenyl)-1-oxo-N-(pyridin-2-yl)-1,2,3,4-tetrahydroisoquinoline-4-carboxamide] |
| 7100 nM | CNC(=O)C1c2ccccc2C(=O)N(c2ccc(OC)cc2)C1c1ccc(OC)cc1 (stereo not drawn) [trans-7g, trans-2,3-Bis(4-methoxyphenyl)-N-methyl-1-oxo-1,2,3,4-tetrahydroisoquinoline-4-carboxamide] |
| 950 nM | COc1ccc(C2C(C(=O)Nc3cc(C)cc(C)c3)c3ccccc3C(=O)N2c2ccc(OC)cc2)cc1 (stereo not drawn) [trans-7j, trans-N-(3,5-Dimethylphenyl)-2,3-bis(4-methoxyphenyl)-1-oxo-1,2,3,4-tetrahydroisoquinoline-4-carboxamide] |
| 6400 nM | Cc1cccc(NC(=O)C2c3ccccc3C(=O)N(c3ccc(F)cc3)C2c2ccc(F)cc2)n1 (stereo not drawn) [trans-7k, trans-2,3-Bis(4-fluorophenyl)-N-(6-methylpyridin-2-yl)-1-oxo-1,2,3,4-tetrahydroisoquinoline-4-carboxamide] |
| > 100000 nM | COc1ccc(C2C(C(=O)Nc3cccc(C)n3)c3ccccc3C(=O)N2c2ccc(Oc3ccccc3)cc2)cc1 (stereo not drawn) [trans-7n, trans-3-(4-Methoxyphenyl)-N-(6-methylpyridin-2-yl)-1-oxo-2-(4-phenoxyphenyl)-1,2,3,4-tetrahydroisoquinoline-4-carboxamide] |
| 200 nM | COc1ccc(C2C(C(=O)Nc3ncccn3)c3ccccc3C(=O)N2c2ccccc2)cc1 (stereo not drawn) [trans-7p, trans-3-(4-Methoxyphenyl)-1-oxo-2-phenyl-N-(pyrimidin-2-yl)-1,2,3,4-tetrahydroisoquinoline-4-carboxamide] |
| 570 nM | COc1ccc(C2C(C(=O)Nc3cccnc3)c3ccccc3C(=O)N2c2ccccc2)cc1 (stereo not drawn) [trans-7q, trans-3-(4-Methoxyphenyl)-1-oxo-2-phenyl-N-(pyridin-3-yl)-1,2,3,4-tetrahydroisoquinoline-4-carboxamide] |

Same assay, conditions: Homo sapiens, INA-6, 72 h, read-out: INA-6 EC50(±sdv)

| Compound | EC50 |
| --- | --- |
| COc1ccc(N2C(=O)c3ccccc3[C@H](C(=O)O)[C@@H]2c2ccccc2)cc1 (relative stereo) [cis-6c, Sodium cis-2-(4-methoxyphenyl)-1-oxo-3-phenyl-1,2,3,4-tetrahydroisoquinoline-4-carboxylate] | > 100000 nM |
| COc1ccc([C@H]2[C@H](C(=O)O)c3ccccc3C(=O)N2c2ccccc2)cc1 (relative stereo) [trans-6b, Sodium trans-3-(4-methoxyphenyl)-1-oxo-2-phenyl-1,2,3,4-tetrahydroisoquinoline-4-carboxylate] | 2000 nM |
| COc1ccc(N2C(=O)c3ccccc3[C@@H](C(=O)O)[C@@H]2c2ccccc2)cc1 (relative stereo) [trans-6c, Sodium trans-2-(4-methoxyphenyl)-1-oxo-3-phenyl-1,2,3,4-tetrahydroisoquinoline-4-carboxylate] | 64000 nM |
| COc1ccc(C2C(C(=O)Nc3cccc(C)c3)c3ccccc3C(=O)N2c2ccc(OC)cc2)cc1 (stereo not drawn) [trans-7e, trans-2,3-Bis(4-methoxyphenyl)-1-oxo-N-(m-tolyl)-1,2,3,4-tetrahydroisoquinoline-4-carboxamide] | 880 nM |

Test system: not given
Assay: not given
Conditions: not given

| melting point | Compound |
| --- | --- |
| 116 to 118 °C | O=C(O)[C@@H]1c2ccccc2C(=O)N(c2ccc(F)cc2)[C@H]1c1ccc(F)cc1 (relative stereo) [trans-5e, trans-2,3-Bis(4-fluorophenyl)-1-oxo-1,2,3,4-tetrahydroisoquinoline-4-carboxylic acid] |
| 116 to 127 °C | O=C(O)[C@@H]1c2ccccc2C(=O)N(c2ccc(Cl)cc2)[C@H]1c1ccc(Cl)cc1 (relative stereo) [trans-5f, trans-2,3-Bis(4-chlorophenyl)-1-oxo-1,2,3,4-tetrahydroisoquinoline-4-carboxylic acid] |
| 109 to 115 °C | COc1ccc([C@H]2[C@H](C(=O)O)c3ccccc3C(=O)N2c2ccc(Oc3ccccc3)cc2)cc1 (relative stereo) [trans-5h, trans-3-(4-Methoxyphenyl)-1-oxo-2-(4-phenoxyphenyl)-1,2,3,4-tetrahydroisoquinoline-4-carboxylic acid] |
| 208 to 209 °C | COc1ccc(N2C(=O)c3ccccc3C(C(=O)O)C2c2ccccc2)cc1 (stereo not drawn) [cis-5c, cis-2-(4-Methoxyphenyl)-1-oxo-3-phenyl-1,2,3,4-tetrahydroisoquinoline-4-carboxylic acid] |
